In US11806317B2, “Composition capable of promoting testosterone secretion and use thereof” (TCI CO., LTD, priority 2017, dated 2023):

Test system: mouse Leydig cells (TM3 cells, ATCC CRL1714)
Assay: Test of effects of plant extracts or combinations of components on testosterone secretion (testosterone ELISA of culture supernatant)
Format: cell-based
Details: 24 hours, control 100%
Description: 500 μl of the cell culture medium was added to each well of a 24-well plate to have 2×10^4 TM3 cells per well, and cultured at 37° C. for 24 hours. After the cells were adhered, the original medium was removed, and 500 μl of the aforementioned fresh cell culture medium was added.
The samples were then divided into two groups, of which group A was the control group, and no plant extracts or other test components were added. Group B was the test group. […] After that, the condition of the amount of testosterone secretion was analyzed. The doses shown in the tables are the doses of the single extract, or the combination of the extracts.
First, 50 μl of the supernatant of the culture medium after the reaction of each of the above groups was taken out, and the testosterone ELISA test kit (USCN, Cat# CEA458Ge) was used to detect the testosterone concentration. The detected values were then analyzed by Microsoft Excel software using Student's t-test to determine whether there is statistical significance between the two samples (* indicates p-value <0.05; ** indicates p-value <0.01; *** indicates p-value <0.001).

[1] = dose 0.125 mg/ml (single extract/component or 1:1 combination)
[2] = dose 0.25 mg/ml (single extract/component or 1:1 combination)

SMILES | Testosterone secretion relative to control (dose 0.03125 mg/ml (single extract/component or 1:1 combination)) [%] | Testosterone secretion relative to control [1] [%] | Testosterone secretion relative to control [2] [%]
CC1=C(/C=C/C(C)=C/C=C/C(C)=C/C=C/C=C(C)/C=C/C=C(C)/C=C/C2=C(C)CCCC2(C)C)C(C)(C)CCC1 [beta carotene] | 66.21 | 103.79 | 111.42
CC(C)=CCC/C(C)=C/C=C/C(C)=C/C=C/C(C)=C/C=C/C=C(C)/C=C/C=C(C)/C=C/C=C(\C)CCC=C(C)C [lycopene] | – | 99.94 | 104.02
